Literature values in patent publication US8486426B2, “Methods and compositions for treatment of dermal conditions” (Kimberly-Clark Worldwide, Inc., priority 2002, dated 2013).

Columns and labels:
onychomycosis = settings: for Clinical cure rate: total dystrophic onychomycosis (TDO), oral drug
[1] = tested on: dermatophytes, yeast and molds that typically cause onychomycosis
[2] = for deaths among liver failure cases: reported by/through 2001
[3] = in vivo

CCC(C)(C)c1ccc(CC(C)CN2C[C@@H](C)O[C@@H](C)C2)cc1 (some centres unmarked) [LOCERYL, amorolfine]
effective in share of the cases (onychomycosis; mild onychomycosis with no matrix involvement, topical 5% solution): about 40%

Cc1cc(C2CCCCC2)n(O)c(=O)c1 [PENLAC, ciclopirox olamine]
in vitro action on fungi [1]: fungicidal
cure rate (onychomycosis; mild to moderate DLSO, average 40% of nail involved, no matrix infection, topical): 7%

CCC(C)n1ncn(-c2ccc(N3CCN(c4ccc(OCC5COC(Cn6cncn6)(c6ccc(Cl)cc6Cl)O5)cc4)CC3)cc2)c1=O (centres unmarked) [SPORANOX, itraconazol]
deaths among pulmonary edema cases ([2]; as of 2001): 13 deaths
cases of liver failure reported ([2]; in vivo): 24 cases
cases of pulmonary edema (probable association) ([2]; in vivo): 58 cases
deaths among liver failure cases [2]: 11 deaths

CN(C/C=C/C#CC(C)(C)C)Cc1cccc2ccccc12 [TERBINAFINE, terbinafine]
persistence after treatment [3]: several months
time at which detectable in the nail bed [3]: one week
Clinical cure rate (onychomycosis): 37%
cases of liver failure reported ([2]; in vivo): 16 cases
liver transplants reported ([2]; in vivo): 2 liver transplants
deaths among liver failure cases [2]: 11 deaths

OC(Cn1cncn1)(Cn1cncn1)c1ccc(F)cc1F [fluconazole]
Clinical cure rate (onychomycosis): about 38%
